Key:
KOR = target: T1, KOR (Mus musculus, UniProt P33534); assay: competitive radioligand binding assay, KOR; settings: CHO cell membranes; mean ± SEM (n ≥ 3)
T1 construct: expressed in transfected cells; host or cells: CHO cells (provided by Dr. Selley, Virginia Commonwealth University)

[1] = target: T2, human δ-opioid receptor (DOR) (Homo sapiens, UniProt P41143); assay: competitive radioligand binding assay, DOR; settings: CHO cell membranes; mean ± SEM (n ≥ 3)
T2 construct: expressed in transfected cells; host or cells: CHO cells (provided by Dr. Selley, Virginia Commonwealth University)

MOR = target: T3, MOR (Mus musculus, UniProt P42866); assay: [35S]-GTPγS functional assay at MOR; format: biochemical; settings: relative to 3 μM DAMGO; mean ± SEM (n ≥ 3)
T3 construct: expressed in transfected cells

O=C(N[C@H]1CC[C@@]2(O)[C@H]3Cc4ccc(O)c5c4[C@@]2(CCN3CC2CC2)[C@H]1O5)c1cccc2cc[nH]c12 [NAN, 17-cyclopropylmethyl-3,14β-dihydroxy-4,5α-epoxy-6α-(indole-7-carboxamido)morphinan]
Ki (KOR): 1.69 ± 0.35 nM | Ki [1]: 13.7 ± 1.39 nM | MOR [35S]-GTPγS binding % Emax of DAMGO (MOR): 19.11 ±3.31%

Source: PMC12910667, “Investigating the Landscape of C6-Azaindole Side Chain on the Epoxymorphinan Skeleton via the Nitrogen Walk Concept: A Strategy to Enhance Drug-Like Properties” (Journal of Medicinal Chemistry, 2026)
